From patent publication US7863416B2, “Nociceptin-based analgesics” (Synvax, Inc., priority 2001, dated 2011) come the findings set out here.

Square brackets hold non-standard residues; d marks the D form. Peptide text beside a SMILES is read from it. Phe(4-CH2SO3H) = N[C@@H](Cc1ccc(CS(=O)(=O)O)cc1)C(=O)O; Phe(4-CH2NH2) = NCc1ccc(C[C@H](N)C(=O)O)cc1; Tyr(3-Cl) = N[C@@H](Cc1ccc(O)c(Cl)c1)C(=O)O; Phe(4-NH2) = Nc1ccc(C[C@H](N)C(=O)O)cc1; Tyr(BN∗,3-Cl) = not defined here

Assay [1] addresses T1, human ORL1 (Homo sapiens, UniProt P41146).
T1 construct: expressed in transfected cells; host or cells: CHO cells (G418-selected)
Briefly: [3H]nociceptin binding to membranes of CHO cells transfected with human ORL1. The following applies: for Hill Coefficient: Table 5.

In assay [2] the target is T1, human ORL1. Kind of assay: Stimulation of [35S]GTPγS binding in membranes of CHO cells transfected with human ORL-1. It is filed as biochemical. The note with it: for EC50 ± SEM, stimulation of [35S]GTPγS binding: Table 6; for Emax: read-out: % Stimulation ± SEM of [35S]GTPγS binding; for agonist/antagonist character at ORL1: in words. Here is the method:
First, CHO cells transfected with human ORL-1 are scraped from tissue culture dishes into 20 mM HEPES, 1 mM EDTA, and then centrifuged at 500×g for 10 minutes. The cells are then re-suspended in this buffer and homogenized using a Polytron Homogenizer.
The cellular homogenate is next centrifuged at 20,000×g for 20 minutes. Following this, the resulting pellet is re-suspended in a buffer containing 20 mM HEPES, 10 mM MgCl2, and 100 mM NaCl, having a resulting pH of 7.4. The suspension is then re-centrifuged at 20,000×g and suspended once more in the above-listed buffer. The pellet may be frozen at −70° C. prior to the final centrifugation. For the binding assay, membranes (10-20 μg protein) are incubated with [^35S]GTPγγS (50 pM), GDP (usually 10 μM), and the desired compound. The total volume of the mixture is 1 ml, which is incubated for 60 min at 25° C.
Following incubation, samples are filtered over glass fiber filters and counted. […]
In these [^35S]GTPγS assays, binding was conducted as described above. EC50 values and percent stimulation were determined using the program Prism.
A general note: GTPγS resists hydrolysis and so accumulates on activated G proteins.

Assay [3] concerns mice. Briefly: Tail flick assay, peptide combined with morphine and/or N/OFQ (morphine-induced analgesia). It is filed as in vivo. The protocol:
The modified Boniferroni Test was used for these planned comparisons (p value was set at P<0.036). Doses were determined based on the potency of the compounds tested.
The antagonist was next assayed for the ability to reverse the inhibition of morphine-induced analgesia. In this assay, the control received morphine alone, while test animals received morphine +3 nmol of the antagonist, morphine +10 nmol of the antagonist. […] For each of these animals, response was measured at 5, 10, and 20 minutes after intracerebroventricular injection.
The agonist VII-87-B was further investigated by evaluating its ability to reverse morphine-induced analgesia. In this assay, the control animal received 10 nmols of morphine alone, while test animals received morphine +0.1 nmol of the agonist, morphine +1.0 nmol of the agonist, or morphine +10.0 nmol of the agonist. For each of these animals, response was measured at 5, 10, and 20 minutes after intracerebroventricular injection.
The agonist VII-39-D was then further investigated by evaluating its ability to reverse morphine-induced analgesia. In this assay, the control animal received 10 nmols of morphine alone, while test animals received morphine +0.1 nmol of the agonist, morphine +1.0 nmol of the agonist, or morphine +10.0 nmol of the agonist. For each of these animals, response was measured at 5, 10, and 20 minutes after intracerebroventricular injection.

The subject of assay [4] is mice. Kind of assay: Tail flick assay, peptide alone, intracerebroventricular injection.

T1 sequence (P41146 whole entry): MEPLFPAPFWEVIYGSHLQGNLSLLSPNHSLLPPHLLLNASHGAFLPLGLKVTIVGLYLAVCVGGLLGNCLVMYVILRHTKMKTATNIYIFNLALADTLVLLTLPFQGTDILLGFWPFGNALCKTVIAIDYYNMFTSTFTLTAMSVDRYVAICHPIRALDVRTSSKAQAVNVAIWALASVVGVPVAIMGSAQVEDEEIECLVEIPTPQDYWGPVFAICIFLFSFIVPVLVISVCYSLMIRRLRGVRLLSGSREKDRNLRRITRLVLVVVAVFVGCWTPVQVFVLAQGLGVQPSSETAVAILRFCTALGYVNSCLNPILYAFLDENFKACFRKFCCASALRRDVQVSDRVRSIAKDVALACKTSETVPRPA

Turning to `CC(=O)N[C@@H](CCCNC(=N)N)C(=O)N[C@@H](Cc1ccc(O)cc1)C(=O)N[C@@H](Cc1ccc(CS(=O)(=O)O)cc1)C(=O)N[C@@H](CCCNC(=N)N)C(=O)N[C@@H](Cc1c[nH]c2ccccc12)C(=O)N[C@@H](CCCNC(=N)N)C(N)=O` [VII-75-B, Ac-Arg-Tyr-Phe(4-CH2SO3H)-Arg-Trp-Arg-NH2] (Ac-RY[Phe(4-CH2SO3H)]RWR-NH2), the “Hill Coefficient” value in assay [1] worked out at 0.75. Besides, in assay [2], the “EC50 ± SEM, stimulation of [35S]GTPγS binding” value (“EC50 ± SEM, stimulation” for short) is “FLAT” and the Emax was below 20%.
Regarding `CC(=O)Nc1ccc(C[C@H](NC(=O)[C@H](Cc2ccc(O)cc2)NC(=O)[C@H](CCCNC(=N)N)NC(C)=O)C(=O)N[C@@H](CCCNC(=N)N)C(=O)N[C@@H](Cc2c[nH]c3ccccc23)C(=O)N[C@@H](CCCNC(=N)N)C(N)=O)cc1` [VII-77-A, Ac-Arg-Tyr-Phe(4-NHAc)-Arg-Trp-Arg-NH2] (Ac-RY[Phe(4-NH2)](Ac)RWR-NH2), in assay [1], the “Hill Coefficient” value is recorded as 0.62. Also, the Emax in assay [2] is 19 ± 6.92%.
For `CC(=O)N[C@@H](CCCNC(=N)N)C(=O)N[C@@H](Cc1ccc(O)cc1)C(=O)N[C@@H](Cc1ccc(CN)cc1)C(=O)N[C@@H](CCCNC(=N)N)C(=O)N[C@@H](Cc1c[nH]c2ccccc12)C(=O)N[C@@H](CCCNC(=N)N)C(N)=O` [VII-79-A, Ac-Arg-Tyr-Phe(4-CH2NH2)-Arg-Trp-Arg-NH2] (Ac-RY[Phe(4-CH2NH2)]RWR-NH2), the “Hill Coefficient” value in assay [1] is listed as 0.89. In assay [2], the “EC50 ± SEM, stimulation” value is on record as “FLAT” and the Emax was below 20%.
Regarding `CC(=O)N[C@@H](CCCNC(=N)N)C(=O)N[C@@H](Cc1ccc(O)c(Cl)c1)C(=O)N[C@@H](Cc1ccc(O)cc1)C(=O)N[C@@H](CCCNC(=N)N)C(=O)N[C@@H](Cc1c[nH]c2ccccc12)C(=O)N[C@@H](CCCNC(=N)N)C(N)=O` [VII-87-B, Ac-Arg-Tyr(3-Cl)-Tyr-Arg-Trp-Arg-NH2] (Ac-R[Tyr(3-Cl)]YRWR-NH2), in assay [2], the “agonist/antagonist character at ORL1” value is “agonist” and the Emax came out at 72%. Also, the “reversal of morphine-induced analgesia” value in assay [3] (morphine 10 nmol + 0.1, 1.0, 10.0 nmol agonist icv, at 10 and 20 minutes with 10 nmol) was “dose-dependent reversal of morphine-induced analgesia”. Further, the “effect on nociception (% antinociception)” value in assay [4] (10 nmol icv, 5, 10 and 20 minutes post-injection) is “induced pro-nociception”.
Turning to “Ac-Arg-Tyr(BN*, 3-Cl)-Tyr-Arg-Trp-Arg-NH2 (Ac-R[Tyr(BN∗,3-Cl)]YRWR-NH2; reading uncertain; also: printed as Ac-Arg-Tyr(BN*, 3-Cl)-Tyr-Arg-Trp-Arg-NH2) [VII-39-D]”, in assay [1], the “Hill Coefficient” value stood at 1.03. The “agonist/antagonist character at ORL1” value in assay [2] was “full agonist”. In assay [3] (morphine 10 nmol + 1.0 and 10 nmol agonist icv, 5, 10 and 20 minutes), the “effect on morphine-induced analgesia” value was “attenuation of morphine-induced analgesia”. The “effect on nociception (% antinociception)” value in assay [4] (0.1, 1.0 or 10.0 nmol icv, 5, 10 and 20 minutes post-injection) is reported as “did not induce anti- or pro-nociception”.
As a reminder, the IC50 is the concentration that gives 50% inhibition. As usually defined, the EC50 is the midpoint of the concentration-response curve. Regarding Ac-RY(D)YR(D)WRNH2 [IV-12-B], the IC50 in assay [1] (read-out: [3H]nociceptin Binding IC50, Table 1) was determined as 1.15 µM. Besides, the EC50 in assay [2] (Table 1, read-out: [35S]GTPγS Binding EC50) is above 10 µM. Besides, the “[35S]GTPγS Binding Percent Stimulation” value in assay [2] (Table 1, relative to nociceptin) is on record as below 10%.
Take “β-Nva-Arg-Tyr-Tyr-Arg-Trp-Arg-NH2 (βNva-RYYRWR-NH2) [VII-2-A]”: the “Hill Coefficient” value in assay [1] is listed as 1.0. Also, the “EC50 ± SEM, stimulation” value in assay [2] is reported as “FLAT”.
